Laboratory results as given in ChEMBL document CHEMBL1795245, “Pyrazoline based MAO inhibitors: synthesis, biological evaluation and SAR studies” (Bioorg Med Chem Lett, 2011).

Tests used:
[1] = molecular target: T1, Amine oxidase [flavin-containing] A (Homo sapiens, UniProt P21397); assay: Inhibition of human MAO-A expressed in BTI insect cells using p-tyramine as substrate after 60 mins
T1 sequence (P21397 whole entry): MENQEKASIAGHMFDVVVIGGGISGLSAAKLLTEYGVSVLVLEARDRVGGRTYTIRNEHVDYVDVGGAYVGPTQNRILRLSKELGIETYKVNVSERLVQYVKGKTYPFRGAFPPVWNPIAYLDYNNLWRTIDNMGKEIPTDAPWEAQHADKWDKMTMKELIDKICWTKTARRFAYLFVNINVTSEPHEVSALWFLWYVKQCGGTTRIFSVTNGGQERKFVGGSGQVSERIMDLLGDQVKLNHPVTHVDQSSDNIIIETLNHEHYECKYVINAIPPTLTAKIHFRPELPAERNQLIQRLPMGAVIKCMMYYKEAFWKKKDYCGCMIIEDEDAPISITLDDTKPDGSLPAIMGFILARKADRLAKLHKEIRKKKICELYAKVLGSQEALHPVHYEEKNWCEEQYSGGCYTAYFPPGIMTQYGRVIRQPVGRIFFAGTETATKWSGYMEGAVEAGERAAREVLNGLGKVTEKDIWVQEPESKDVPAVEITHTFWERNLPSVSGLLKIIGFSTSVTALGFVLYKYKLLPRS

[2] = molecular target: T2, Amine oxidase [flavin-containing] B (Homo sapiens, UniProt P27338); assay: Inhibition of human MAO-B expressed in BTI insect cells using p-tyramine as substrate after 60 mins; assay type: cell-based
T2 sequence (P27338 whole entry): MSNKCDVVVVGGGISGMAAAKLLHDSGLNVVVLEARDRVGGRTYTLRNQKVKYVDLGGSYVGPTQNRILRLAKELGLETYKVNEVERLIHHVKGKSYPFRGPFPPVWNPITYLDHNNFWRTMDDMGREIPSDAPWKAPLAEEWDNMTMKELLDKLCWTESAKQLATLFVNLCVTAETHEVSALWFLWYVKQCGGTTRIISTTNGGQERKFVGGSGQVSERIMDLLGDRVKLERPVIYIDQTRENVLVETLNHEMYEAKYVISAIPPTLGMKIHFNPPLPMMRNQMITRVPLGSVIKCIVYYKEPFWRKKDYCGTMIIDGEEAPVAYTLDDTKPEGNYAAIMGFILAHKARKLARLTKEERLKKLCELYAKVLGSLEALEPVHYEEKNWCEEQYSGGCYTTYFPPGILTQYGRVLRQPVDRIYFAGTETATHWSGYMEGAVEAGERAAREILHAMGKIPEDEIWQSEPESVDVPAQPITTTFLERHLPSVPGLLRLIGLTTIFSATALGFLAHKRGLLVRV

Homo sapiens = species on record: Homo sapiens; assay: Selectivity index, ratio of Ki for human MAO-A to Ki for human MAO-B expressed in BTI insect cells
[3] = molecular target: T1, Amine oxidase [flavin-containing] A; assay: Reversible inhibition of human MAO-A expressed in BTI insect cells using p-tyramine as substrate after 60 mins; conditions: 1 h
[4] = molecular target: T1, Amine oxidase [flavin-containing] A; assay: Competitive inhibition of human MAO-A expressed in BTI insect cells using p-tyramine as substrate after 60 mins; conditions: 1 h

Row | SMILES | Ki [1] | Ki [2] | Ratio Ki (Homo sapiens) | inhibition (INH) [3] | inhibition (INH) [4]
1 | Cc1cccc(NC(=S)N2N=C(c3ccccc3)CC2c2ccccc2O)c1 (centres undefined) | 0.3 µM | 250 µM | 0.001 | Active | Active
2 | COc1cccc(NC(=S)N2N=C(c3ccccc3)CC2c2ccc(O)cc2)c1 (centres undefined) | 0.35 µM | 355 µM | 0.000988 | Active | Active
3 | Cc1cccc(NC(=S)N2N=C(c3ccccc3)CC2c2ccc(O)cc2)c1 (centres undefined) | 0.13 µM | 256 µM | 0.000509 | Active | Active
4 | COc1ccc(NC(=S)N2N=C(c3ccccc3)CC2c2ccc(O)cc2)cc1 (centres undefined) | 0.09 µM | 401 µM | 0.000226 | Active | Active
5 | Cc1ccccc1NC(=S)N1N=C(c2ccccc2)CC1c1ccccc1O (centres undefined) | 0.25 µM | 22 µM | 0.001 | Active | Active
6 | N=C(N)N1N=C(c2ccccc2)CC1c1ccc(Cl)cc1 (centres undefined) | 0.15 µM | 4.22 µM | 0.035 | Active | Active
7 | COc1ccccc1NC(=S)N1N=C(c2ccccc2)CC1c1ccccc1O (centres undefined) | 0.31 µM | 60 µM | 0.005 | Active | Active
8 | COc1ccccc1NC(=S)N1N=C(c2ccccc2)CC1c1ccc(O)cc1 (centres undefined) | 2.15 µM | 2130 µM | 0.001 | Active | Active
9 | Cc1ccccc1NC(=S)N1N=C(c2ccccc2)CC1c1ccc(O)cc1 (centres undefined) | 0.31 µM | 309 µM | 0.001 | Active | Active
10 | Cc1ccc(NC(=S)N2N=C(c3ccccc3)CC2c2ccc(O)cc2)cc1 (centres undefined) | 0.36 µM | 300 µM | 0.001 | Active | Active
11 | O=C(NCCN1CCOCC1)c1ccc(Cl)cc1 [MOCLOBEMIDE] | – | – | – | Active | Active
12 | COc1ccc(NC(=S)N2N=C(c3ccccc3)CC2c2ccccc2O)cc1 (centres undefined) | 0.17 µM | 60.2 µM | 0.001 | Active | Active
13 | Cc1ccc(C2CC(c3ccccc3)=NN2C(N)=O)cc1 (centres undefined) | 0.49 µM | 3.2 µM | 0.153 | Active | Active
14 | NC(=O)N1N=C(c2ccccc2)CC1c1ccncc1 (centres undefined) | 7 µM | 4.79 µM | 1.46 | Active | Active
15 | N=C(N)N1N=C(c2ccccc2)CC1c1ccncc1 (centres undefined) | 0.67 µM | 4.8 µM | 0.14 | Active | Active
16 | NC(=O)N1N=C(c2ccccc2)CC1c1ccc(Cl)cc1 (centres undefined) | 0.3 µM | 1.66 µM | 0.181 | Active | Active
17 | COc1cccc(NC(=S)N2N=C(c3ccccc3)CC2c2ccccc2O)c1 (centres undefined) | 0.1 µM | 979 µM | 0.000102 | Active | Active
18 | Cc1ccc(NC(=S)N2N=C(c3ccccc3)CC2c2ccccc2O)cc1 (centres undefined) | 0.29 µM | 69.9 µM | 0.004 | Active | Active
19 | Cc1ccc(C2CC(c3ccccc3)=NN2C(=N)N)cc1 (centres undefined) | 0.4 µM | 4.11 µM | 0.099 | Active | Active
20 | COc1ccc(C2CC(c3ccccc3)=NN2C(N)=O)cc1 (centres undefined) | 0.98 µM | 1.88 µM | 0.521 | Active | Active
21 | C#CCN(C)[C@H](C)Cc1ccccc1 [SELEGILINE] | – | – | – | Active | Active
22 | NC(=S)N1N=C(c2ccccc2)CC1c1ccncc1 (centres undefined) | 0.456 µM | 4 µM | 0.114 | Active | Active
